≈ marks a conversion by molar mass, not a printed value. Where two headings read alike, the source gives them in different places.
System: S. aureus clinical isolates
Assay: microbe, parasite or virus in culture
Type: cell-based
Conditions: Staphylococcus aureus, read-out: MIC

Question: What does the source list for `Cc1onc(-c2ccccc2)c1C(=O)N[C@@H]1C(=O)N2[C@@H]1SC(C)(C)[C@@H]2C(=O)O` [Oxacillin]?
Answer: MIC (ATCC 29213 / MSSA, S. aureus ATCC 29213, MSSA / VSSA, test date 2018-10-25 (three repeat lines)): 0.25 µg/mL (≈ 0.623 µM); MIC (ATCC 29213 / MSSA, S. aureus ATCC 29213, MSSA / VSSA, test date 2018-11-07): 0.25 µg/mL (≈ 0.623 µM); MIC (MRSA / NRS 3 / VISA, S. aureus IHMA 1308243, NRS3, MRSA / VISA): > 64 µg/mL; MIC (MRSA / NRS 4 / VISA, S. aureus IHMA 649380, NRS4, MRSA / VISA): > 64 µg/mL; MIC (MRSA / NRS 18 / VISA, S. aureus IHMA 649386, NRS18, MRSA / VISA): 64 µg/mL (≈ 159 µM); MIC (MRSA / NRS 19 / VISA, S. aureus IHMA 649387, NRS19, MRSA / VISA): > 64 µg/mL; MIC (MRSA / NRS 21 / VISA, S. aureus IHMA 649388, NRS21, MRSA / VISA): > 64 µg/mL; MIC (MRSA / NRS 22 / USA600 / VISA, S. aureus IHMA 649389, NRS22, MRSA / VISA, USA600): 16 µg/mL (≈ 39.9 µM); MIC (MRSA / NRS 23 / VISA, S. aureus IHMA 649390, NRS23, MRSA / VISA): > 64 µg/mL; MIC (MRSA / NRS 24 / VISA, S. aureus IHMA 649391, NRS24, MRSA / VISA): > 64 µg/mL; MIC (MRSA / NRS 26, S. aureus IHMA 649392, NRS26, MRSA / VSSA): > 64 µg/mL; MIC (MRSA / NRS 27 / VISA, S. aureus IHMA 1308248, NRS27, MRSA / VISA): > 64 µg/mL; MIC (MRSA / NRS 29 / VISA, S. aureus IHMA 1308250, NRS29, MRSA / VISA): > 64 µg/mL; MIC (MRSA / NRS 37 / VISA, S. aureus IHMA 1308251, NRS37, MRSA / VISA): 8 µg/mL (≈ 19.9 µM); MIC (MRSA / NRS 54, S. aureus IHMA 1308253, NRS54, MRSA / VSSA* (*Expected VAN intermediate, confirmed VAN susceptible twice), test date 2018-11-07): > 64 µg/mL; MIC (MRSA / NRS 56 / VISA, S. aureus IHMA 1308254, NRS56, MRSA / VISA): > 64 µg/mL; MIC (MRSA / USA100 / VRSA, S. aureus IHMA 672230, VRS1, MRSA / VRSA, USA100): > 64 µg/mL; MIC (MRSA / USA100 / VRSA, S. aureus IHMA 672231, VRS2, MRSA / VRSA, USA100): > 64 µg/mL; MIC (MRSA / USA100 / VRSA, S. aureus IHMA 672234, VRS4, MRSA / VRSA, USA100): > 64 µg/mL; MIC (MRSA / USA100 / VRSA, S. aureus IHMA 672235, VRS5, MRSA / VRSA, USA100): > 64 µg/mL; MIC (MRSA / USA100 / VRSA, S. aureus IHMA 672237, VRS7, MRSA / VRSA, USA100): > 64 µg/mL; MIC (MRSA / USA100 / VRSA, S. aureus IHMA 672238, VRS8, MRSA / VRSA, USA100): > 64 µg/mL; MIC (MRSA / USA100 / VRSA, S. aureus IHMA 672239, VRS9, MRSA / VRSA, USA100): > 64 µg/mL; MIC (MRSA / USA100 / VRSA, S. aureus IHMA 1308256, VRS10, MRSA / VRSA, USA100): > 64 µg/mL; MIC (MRSA / USA100 / VRSA, S. aureus IHMA 1308258, VRS11b, MRSA / VRSA, USA100): 16 µg/mL (≈ 39.9 µM); MIC (MRSA / USA800 / VRSA, S. aureus IHMA 672233, VRS3b, MRSA / VRSA, USA800): > 64 µg/mL; MIC (MRSA, S. aureus IHMA 1569509, MRSA / VSSA): > 64 µg/mL; MIC (MRSA, S. aureus IHMA 1575268, MRSA / VSSA): > 64 µg/mL; MIC (MRSA, S. aureus IHMA 1575629, MRSA / VSSA): 64 µg/mL (≈ 159 µM); MIC (MRSA, S. aureus IHMA 1577820, MRSA / VSSA): 32 µg/mL (≈ 79.7 µM); MIC (MRSA, S. aureus IHMA 1580300, MRSA / VSSA): > 64 µg/mL; MIC (MRSA, S. aureus IHMA 1580940, MRSA / VSSA): 32 µg/mL (≈ 79.7 µM); MIC (MRSA, S. aureus IHMA 1582100, MRSA / VSSA): > 64 µg/mL; MIC (MRSA, S. aureus IHMA 1583795, MRSA / VSSA): > 64 µg/mL; MIC (MRSA, S. aureus IHMA 1584223, MRSA / VSSA): > 64 µg/mL; MIC (MRSA, S. aureus IHMA 1585316, MRSA / VSSA): > 64 µg/mL; MIC (MRSA, S. aureus IHMA 1586780, MRSA / VSSA): 32 µg/mL (≈ 79.7 µM); MIC (MRSA, S. aureus IHMA 1587322, MRSA / VSSA): > 64 µg/mL; MIC (MRSA, S. aureus IHMA 1588127, MRSA / VSSA): 32 µg/mL (≈ 79.7 µM); MIC (MRSA, S. aureus IHMA 1591462, MRSA / VSSA): 32 µg/mL (≈ 79.7 µM); MIC (MRSA, S. aureus IHMA 1592755, MRSA / VSSA): > 64 µg/mL; MIC (MRSA, S. aureus IHMA 1592776, MRSA / VSSA): 32 µg/mL (≈ 79.7 µM); MIC (MRSA, S. aureus IHMA 1597106, MRSA / VSSA): > 64 µg/mL; MIC (MRSA, S. aureus IHMA 1602095, MRSA / VSSA): 32 µg/mL (≈ 79.7 µM); MIC (MRSA, S. aureus IHMA 1611170, MRSA / VSSA): 16 µg/mL (≈ 39.9 µM); MIC (MRSA, S. aureus IHMA 1611612, MRSA / VSSA): > 64 µg/mL; MIC (MRSA, S. aureus IHMA 1612228, MRSA / VSSA): > 64 µg/mL; MIC (MRSA, S. aureus IHMA 1620441, MRSA / VSSA): > 64 µg/mL; MIC (MRSA, S. aureus IHMA 1621638, MRSA / VSSA): 32 µg/mL (≈ 79.7 µM); MIC (MRSA, S. aureus IHMA 1622252, MRSA / VSSA): > 64 µg/mL; MIC (MRSA, S. aureus IHMA 1622527, MRSA / VSSA): 32 µg/mL (≈ 79.7 µM); MIC (MRSA, S. aureus IHMA 1666371, MRSA / VSSA): 16 µg/mL (≈ 39.9 µM); MIC (MRSA, S. aureus IHMA 1695391, MRSA / VSSA): > 64 µg/mL; MIC (MRSA, S. aureus IHMA 1703428, MRSA / VSSA): 64 µg/mL (≈ 159 µM); MIC (MRSA, S. aureus IHMA 1720350, MRSA / VSSA): 32 µg/mL (≈ 79.7 µM); MIC (MRSA, S. aureus IHMA 1732989, MRSA / VSSA): > 64 µg/mL; MIC (MRSA, S. aureus IHMA 1742231, MRSA / VSSA): > 64 µg/mL; MIC (MRSA, S. aureus IHMA 1766357, MRSA / VSSA): 32 µg/mL (≈ 79.7 µM); MIC (MSSA / NRS 12 / VISA, S. aureus IHMA 1308244, NRS12, MSSA / VISA): 0.25 µg/mL (≈ 0.623 µM); MIC (MSSA / NRS 13 / VISA, S. aureus IHMA 1308245, NRS13, MSSA / VISA): 0.5 µg/mL (≈ 1.25 µM); MIC (MSSA / NRS 14 / VISA, S. aureus IHMA 1308246, NRS14, MSSA / VISA): 0.25 µg/mL (≈ 0.623 µM); MIC (MSSA / NRS 17 / VISA, S. aureus IHMA 1308247, NRS17, MSSA / VISA): 2 µg/mL (≈ 4.98 µM); MIC (MSSA / NRS 28 / VISA, S. aureus IHMA 1308249, NRS28, MSSA / VISA): 2 µg/mL (≈ 4.98 µM); MIC (MSSA / NRS 52, S. aureus IHMA 1308252, NRS52, MSSA / VSSA* (*Expected VAN intermediate, confirmed VAN susceptible twice), test date 2018-11-07): 0.12 µg/mL (≈ 0.299 µM); MIC (MSSA / USA100 / VRSA, S. aureus IHMA 672236, VRS6, MSSA / VRSA, USA100): 2 µg/mL (≈ 4.98 µM); MIC (MSSA, S. aureus IHMA 1563826, MSSA / VSSA): 0.25 µg/mL (≈ 0.623 µM); MIC (MSSA, S. aureus IHMA 1565492, MSSA / VSSA): 0.25 µg/mL (≈ 0.623 µM); MIC (MSSA, S. aureus IHMA 1569499, MSSA / VSSA): 1 µg/mL (≈ 2.49 µM); MIC (MSSA, S. aureus IHMA 1569754, MSSA / VSSA): 1 µg/mL (≈ 2.49 µM); MIC (MSSA, S. aureus IHMA 1574202, MSSA / VSSA): 2 µg/mL (≈ 4.98 µM); MIC (MSSA, S. aureus IHMA 1575652, MSSA / VSSA): 1 µg/mL (≈ 2.49 µM); MIC (MSSA, S. aureus IHMA 1575779, MSSA / VSSA): 0.5 µg/mL (≈ 1.25 µM); MIC (MSSA, S. aureus IHMA 1576329, MSSA / VSSA): 0.5 µg/mL (≈ 1.25 µM); MIC (MSSA, S. aureus IHMA 1577800, MSSA / VSSA): 0.5 µg/mL (≈ 1.25 µM); MIC (MSSA, S. aureus IHMA 1578560, MSSA / VSSA): 0.5 µg/mL (≈ 1.25 µM); MIC (MSSA, S. aureus IHMA 1580233, MSSA / VSSA): 0.5 µg/mL (≈ 1.25 µM); MIC (MSSA, S. aureus IHMA 1580925, MSSA / VSSA): 0.5 µg/mL (≈ 1.25 µM); MIC (MSSA, S. aureus IHMA 1580955, MSSA / VSSA): 0.5 µg/mL (≈ 1.25 µM); MIC (MSSA, S. aureus IHMA 1582586, MSSA / VSSA): 0.5 µg/mL (≈ 1.25 µM); MIC (MSSA, S. aureus IHMA 1582691, MSSA / VSSA): 0.25 µg/mL (≈ 0.623 µM); MIC (MSSA, S. aureus IHMA 1584230, MSSA / VSSA): 0.5 µg/mL (≈ 1.25 µM); MIC (MSSA, S. aureus IHMA 1587279, MSSA / VSSA): 0.25 µg/mL (≈ 0.623 µM); MIC (MSSA, S. aureus IHMA 1591459, MSSA / VSSA): 0.25 µg/mL (≈ 0.623 µM); MIC (MSSA, S. aureus IHMA 1592749, MSSA / VSSA): 0.25 µg/mL (≈ 0.623 µM); MIC (MSSA, S. aureus IHMA 1592751, MSSA / VSSA): 0.5 µg/mL (≈ 1.25 µM); MIC (MSSA, S. aureus IHMA 1594297, MSSA / VSSA): 0.5 µg/mL (≈ 1.25 µM); MIC (MSSA, S. aureus IHMA 1597120, MSSA / VSSA): 0.25 µg/mL (≈ 0.623 µM); MIC (MSSA, S. aureus IHMA 1597125, MSSA / VSSA): 0.5 µg/mL (≈ 1.25 µM); MIC (MSSA, S. aureus IHMA 1599157, MSSA / VSSA): 0.5 µg/mL (≈ 1.25 µM); MIC (MSSA, S. aureus IHMA 1599506, MSSA / VSSA): 0.5 µg/mL (≈ 1.25 µM); MIC (MSSA, S. aureus IHMA 1602078, MSSA / VSSA): 1 µg/mL (≈ 2.49 µM); MIC (MSSA, S. aureus IHMA 1604586, MSSA / VSSA): 0.5 µg/mL (≈ 1.25 µM); MIC (MSSA, S. aureus IHMA 1604609, MSSA / VSSA): 0.25 µg/mL (≈ 0.623 µM); MIC (MSSA, S. aureus IHMA 1609919, MSSA / VSSA): 0.25 µg/mL (≈ 0.623 µM); MIC (MSSA, S. aureus IHMA 1622864, MSSA / VSSA): 0.5 µg/mL (≈ 1.25 µM); MIC (MSSA, S. aureus IHMA 1626392, MSSA / VSSA): 0.5 µg/mL (≈ 1.25 µM); MIC (MSSA, S. aureus IHMA 1713793, MSSA / VSSA): 0.5 µg/mL (≈ 1.25 µM)
